Test results: ChEMBL document CHEMBL5338722, “Optical-Controlled Kinetic Switch: Fine-Tuning of the Residence Time of an Antagonist Binding to the Vasopressin V2 Receptor in In Vitro, Ex Vivo, and In Vivo Models of ADPKD” (J Med Chem, 2023)
pKi: −log10 of the molar value. Values belong to the compound of their own block, whether it stands above or below them. Activity calls are given as the source filed them. The calls are words filed in the database; no cut-off is given here.

Key:
Vasopressin V2 receptor [1] = target: T1, Vasopressin V2 receptor (Homo sapiens, UniProt P30518); experiment: Displacement of conivaptan-red fluorescent probe from SNAP-tagged human vasopressin V2 receptor expressed in HEK293 cells compound pre-illuminated for 10 mins with light at 435 nm and further incubated for 1 hr by HTRF assay; type: cell-based
Vasopressin V2 receptor [2] = target: T1, Vasopressin V2 receptor; experiment: Displacement of conivaptan-red fluorescent probe from SNAP-tagged human vasopressin V2 receptor expressed in HEK293 cells compound pre-illuminated for 10 mins with light at 365 nm and further incubated for 1 hr by HTRF assay; type: cell-based
Vasopressin V2 receptor [3] = target: T1, Vasopressin V2 receptor; experiment: Antagonist activity at human vasopressin V2 receptor expressed in CHO cells assessed as inhibition of vasopressin induced cAMP production at 10 times Ki preincubated for 30 mins followed by two consecutive washouts and irradiated with light at 435 nm during two washouts; type: functional, cell-based
Vasopressin V2 receptor [4] = target: T1, Vasopressin V2 receptor; experiment: Antagonist activity at human vasopressin V2 receptor expressed in CHO cells assessed as inhibition of vasopressin induced cAMP production at 10 times Ki preincubated for 30 mins followed by two consecutive washouts and irradiated with light at 365 nm during two washouts; type: functional, cell-based
Vasopressin V2 receptor [5] = target: T1, Vasopressin V2 receptor; experiment: Displacement of conivaptan-red fluorescent probe from SNAP-tagged human vasopressin V2 receptor expressed in HEK293 cells assessed as on-rate constant at IC50 by TR-FRET based competition association assay; type: cell-based; settings: filed as antagonist
Vasopressin V2 receptor [6] = target: T1, Vasopressin V2 receptor; experiment: Displacement of conivaptan-red fluorescent probe from SNAP-tagged human vasopressin V2 receptor expressed in HEK293 cells assessed as off-rate constant at IC50 by TR-FRET based competition association assay; type: cell-based; settings: filed as antagonist
Vasopressin V2 receptor [7] = target: T1, Vasopressin V2 receptor; experiment: Displacement of conivaptan-red fluorescent probe from SNAP-tagged human vasopressin V2 receptor expressed in HEK293 cells assessed as residence time at IC50 by TR-FRET based competition association assay; type: cell-based; settings: filed as antagonist
[8] = target: Vasopressin V1a receptor (Homo sapiens) (UniProt P37288); experiment: Displacement of [3H]vasopressin from human V1A receptor expressed in CHO cell membranes at 1 uM compound pre-illuminated for 10 mins with light at 435 nm by radioligand displacement assay relative to control; settings: Membrane
Vasopressin V2 receptor [9] = target: T1, Vasopressin V2 receptor; experiment: Displacement of conivaptan-red fluorescent probe from SNAP-tagged human vasopressin V2 receptor expressed in HEK293 cells assessed as kinetic rate index by measuring ratio of binding of labeled probe at 15 mins to 60 mins at IC50 compound pre-illuminated for 10 mins with light at 435 nm by dual-point competition association assay; type: cell-based; settings: filed as antagonist
Vasopressin V2 receptor [10] = target: T1, Vasopressin V2 receptor; experiment: Displacement of conivaptan-red fluorescent probe from SNAP-tagged human vasopressin V2 receptor expressed in HEK293 cells assessed as residence time at 1 uM compound pre-illuminated for 10 mins with light at 435 nm by dual-point competition association assay; type: cell-based; settings: filed as antagonist
Vasopressin V2 receptor [11] = target: T1, Vasopressin V2 receptor; experiment: Displacement of conivaptan-red fluorescent probe from SNAP-tagged human vasopressin V2 receptor expressed in HEK293 cells assessed as on-rate constant at 1 uM compound pre-illuminated for 10 mins with light at 435 nm by dual-point competition association assay; type: cell-based; settings: filed as antagonist
Vasopressin V2 receptor [12] = target: T1, Vasopressin V2 receptor; experiment: Displacement of conivaptan-red fluorescent probe from SNAP-tagged human vasopressin V2 receptor expressed in HEK293 cells assessed as off-rate constant at 1 uM compound pre-illuminated for 10 mins with light at 435 nm by dual-point competition association assay; type: cell-based; settings: filed as antagonist
Vasopressin V2 receptor [13] = target: T1, Vasopressin V2 receptor; experiment: Antagonist activity at human vasopressin V2 receptor expressed in CHO cells assessed as inhibition of AVP-induced cAMP production at 1 uM preincubated for 30 mins followed by two consecutive washouts and irradiated with light at 365 nm during two washouts; type: functional, cell-based; settings: filed as antagonist
Kidney [14] = experiment: Ex vivo inhibition of renal cystogenesis in ADPKD C57BL/6 mouse kidney assessed as suppression of 8-Br-cAMP-induced cyst development at 10 uM measured after 4 days in presence of 8-Br-cAMP by inverted microscopic analysis; type: functional, tissue-based; settings: time 4.0 day
Kidney [15] = experiment: Ex vivo target occupancy at vasopressin V2 receptor in Sprague-Dawley rat kidney assessed as endurance in retention time by measuring half life at 0.1 uM treated for 30 mins followed by extensive drug wash-out for 240 mins by LC-MS analysis; type: functional, tissue-based
[16] = Drug uptake in Sprague-Dawley rat kidney at 0.1 uM treated for 30 mins followed by extensive drug wash-out for 4 hrs by LC-MS analysis; type: ADME, tissue-based; settings: in vivo, 0.5 h
Mus musculus = experiment: In vivo inhibition of renal cystogenesis in Pkd1 knock-out autosomal dominant polycystic kidney disease mouse model assessed as reduction in kidney size at 5 mg/kg, sc administered once daily for 7 days compound pre-irradiated with light at 435 nm prior to administration; type: functional, organism-based; settings: time 7.0 day
[17] = In vivo inhibition of renal cystogenesis in Pkd1 knock-out autosomal dominant polycystic kidney disease mouse model assessed as disease progression at 5 mg/kg, sc administered once daily for 7 days compound pre-irradiated with light at 435 nm prior to administration; type: functional; design: scale not given: the % may be the effect or the level left; settings: time 7 day
Vasopressin V2 receptor [18] = target: T1, Vasopressin V2 receptor; experiment: Displacement of conivaptan-red fluorescent probe from SNAP-tagged human vasopressin V2 receptor expressed in HEK293 cells at 10 uM compound pre-illuminated for 10 mins with light at 435 nm and further incubated for 1 hr by HTRF assay relative to control; type: cell-based

T1 sequence (P30518 whole entry): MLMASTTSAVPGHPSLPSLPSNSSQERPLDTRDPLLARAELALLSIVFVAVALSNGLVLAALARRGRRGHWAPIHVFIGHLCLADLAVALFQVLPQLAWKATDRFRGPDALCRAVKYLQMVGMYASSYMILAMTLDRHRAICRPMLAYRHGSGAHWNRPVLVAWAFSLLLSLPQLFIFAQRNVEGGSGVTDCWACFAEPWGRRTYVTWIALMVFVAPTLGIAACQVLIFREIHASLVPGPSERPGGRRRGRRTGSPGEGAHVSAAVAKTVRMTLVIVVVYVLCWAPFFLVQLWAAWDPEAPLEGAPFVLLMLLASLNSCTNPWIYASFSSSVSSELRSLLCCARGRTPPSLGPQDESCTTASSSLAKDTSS
Vasopressin V1a receptor (Homo sapiens), sequence (P37288 whole entry, looked up): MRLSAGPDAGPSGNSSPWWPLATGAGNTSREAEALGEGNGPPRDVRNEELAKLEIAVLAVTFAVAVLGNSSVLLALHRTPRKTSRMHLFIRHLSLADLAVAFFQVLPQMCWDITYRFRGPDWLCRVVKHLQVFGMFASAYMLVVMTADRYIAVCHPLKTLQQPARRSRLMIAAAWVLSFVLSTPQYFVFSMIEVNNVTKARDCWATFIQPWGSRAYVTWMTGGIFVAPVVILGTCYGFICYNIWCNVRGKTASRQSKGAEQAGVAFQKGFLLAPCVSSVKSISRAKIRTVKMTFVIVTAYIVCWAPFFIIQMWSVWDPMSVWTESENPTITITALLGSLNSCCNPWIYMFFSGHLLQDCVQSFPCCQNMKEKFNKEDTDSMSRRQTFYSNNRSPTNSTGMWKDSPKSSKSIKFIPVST

- pKi (Vasopressin V2 receptor [1]): 6.36
SMILES: Cc1ccccc1/N=N/c1ccc(C(=O)N2Cc3cccn3Cc3ccccc32)c(Cl)c1

- pKi (Vasopressin V2 receptor [1]): 6.23
SMILES: O=C(c1ccc(/N=N/c2ccc(C(F)(F)F)cc2)cc1Cl)N1Cc2cccn2Cc2ccccc21

- pKi (Vasopressin V2 receptor [2]): 6.87
SMILES: Cc1cccc(/N=N\c2ccc(C(=O)N3Cc4cccn4Cc4ccccc43)c(Cl)c2)c1

- pKi (Vasopressin V2 receptor [2]): 6.54
SMILES: O=C(c1ccc(/N=N\c2ccc(F)cc2)cc1Cl)N1Cc2cccn2Cc2ccccc21

- inhibition (Vasopressin V2 receptor [3]): inactive
- inhibition (Vasopressin V2 receptor [4]): inactive
- K (Vasopressin V2 receptor [5]): 4.6 10^7/M/min
- K (Vasopressin V2 receptor [6]): 0.06 min⁻¹
- TIME (Vasopressin V2 receptor [7]): 0.3 h
SMILES: Cc1ccc(F)cc1C(=O)Nc1ccc(C(=O)N2Cc3cccn3Cc3ccccc32)c(Cl)c1

- inhibition [8]: < 40%
- pKi (Vasopressin V2 receptor [1]): 6.55
- Ratio (Vasopressin V2 receptor [9]): 0.95
- TIME (Vasopressin V2 receptor [10]): 0.25 h
- K (Vasopressin V2 receptor [11]): 1.1 10^5/M/min
- K (Vasopressin V2 receptor [12]): 0.068 min⁻¹
- inhibition (Vasopressin V2 receptor [4]; filed as antagonist): Active
- inhibition (Vasopressin V2 receptor [13]): Active
- T1/2 (Kidney [15]): 29 min
- Drug uptake [16]: 10 nM
SMILES: Cc1ccc(/N=N/c2ccc(C(=O)N3Cc4cccn4Cc4ccccc43)c(Cl)c2)cc1
- inhibition (Kidney [14]): Active
- inhibition (Mus musculus): Active
- Activity [17]: 18.2%

- pKi (Vasopressin V2 receptor [1]): 6.55
SMILES: O=C(c1ccc(/N=N/c2ccccc2-c2ccccc2)cc1Cl)N1Cc2cccn2Cc2ccccc21

- pKi (Vasopressin V2 receptor [2]): 6.18
SMILES: O=C(c1ccc(/N=N\c2cccc(-c3ccccc3)c2)cc1Cl)N1Cc2cccn2Cc2ccccc21

- pKi (Vasopressin V2 receptor [1]): 6.24
SMILES: Cc1ccc(F)cc1/N=N/c1ccc(C(=O)N2Cc3cccn3Cc3ccccc32)c(Cl)c1

- inhibition (Vasopressin V2 receptor [18]): 33%
SMILES: O=C(c1ccc(/N=N/c2ccc(-c3ccccc3)cc2)cc1Cl)N1Cc2cccn2Cc2ccccc21

- pKi (Vasopressin V2 receptor [2]): 5.77
SMILES: Cc1ccc(F)cc1/N=N\c1ccc(C(=O)N2Cc3cccn3Cc3ccccc32)c(Cl)c1
